Experimental data as given in patent US20250154288A1, “CYTOTOXICITY TARGETING CHIMERAS FOR C-C CHEMOKINE RECEPTOR 2-EXPRESSING CELLS” (GLAXOSMITHKLINE INTELLECTUAL PROPERTY DEVELOPMENT LIMITED, priority 2022, published 2025).
Structures can show the parent of a compound that is named as a salt.

Key:
[1] = test system: CCR2 expressing cells (CD11b+Ly6c+ Hi) in peripheral blood; experiment: In Vivo Depletion Assay (flow cytometry of peripheral blood); set-up: species or system Human CCR2 (hCCR2) knock-in mice; settings: hCCR2 knock-in mice; IV 0.1 mpk compound + 10 mpk anti-cotinine antibody (mouse IgG2a Fc); peripheral blood at 48 hr
Protocol: (§1) Human CCR2 (hCCR2) knock-in mice (057 background) were dosed intravenously with a PBS solution containing a compound of Formula (I) to measure depletion of CCR2 expressing cells in peripheral blood. Peripheral blood from IV dosed mice was also analyzed to determine PK properties of the ARM compounds of Formula (I).
Stock solution preparation: Stock solutions of compounds of Formula (I) were prepared at 20 mg/mL and 100 mg/mL in DMSO for PK/PD and dose tolerability studies respectively. Stock solutions were stored at −20° C. until further usage.
Formulations preparation: On the day of experiment, the stock solution of the compound of Formula (I) was removed from storage at −20° C. and thawed at room temperature. Anti-cotinine antibody having a heavy chain sequence of SEQ ID NO: 13 and a light chain sequence of SEQ ID NO: 14 (rabbit variable region sequence with mouse IgG2a Fc domain), if required was removed from storage at −80° C. and thawed at room temperature. Antibody vials were immediately transferred into wet ice after thawing. Compounds of Formula (I) were further diluted in DMSO as per experimental requirements.
Formulation composition: The formulation composition was Saline: DMSO: PBS. Saline was added based on the quantity required and then stock solution of the compound of Formula (I) prepared in DMSO, followed by addition of antibody in PBS. Formulations were incubated at room temperature for 30 minutes before administration to the mouse. DMSO was used at 1 to 2% (v/v) in the final formulation.
(§2) Administration to Animal: Solution formulation of antibody and compound of Formula (I) was injected (bolus injection) to the restrained mouse in the right/left lateral tail vein. Animals were dosed with 0.1 milligram per kilogram (mpk) of the compound of Formula (I) and 10 mpk of the anti-cotinine antibody.
(§3) Terminal bleeding at end of experiment (48 hr): Approximately 250 μL of blood in K2EDTA tube and approximately 250 μL of blood in SST (serum separation tube) was collected from each mouse through retro-orbital bleeding under deep isoflurane anesthesia. After bleeding, each mouse was sacrificed by cervical dislocation. The blood distribution at termination was determined as follows: • For PK: 50 μL of K2EDTA blood was transferred to another tube for PK • Flow cytometry: Remaining blood (˜200 μL) was used for flow cytometry analysis. • For serum collection: serum separator tubes (BD) were centrifuged at 4° C., 5000 rpm for 15 minutes. Approximately 100 μL serum was separated and stored at −80° C. for further usage. • Blood drug concentration: Samples collected at the various timepoints (0.25 hr, 2 hr, 24 and 48 hr) were analyzed to determine blood drug concentration.
CCR2 depletion in peripheral blood was determined by flow cytometry. Briefly, peripheral blood was collected from all animals at the end of study termination and processed. Blood samples were lysed using 1×RBC Lysis buffer and the resulting cell pellet was washed twice in FACS buffer (HBSS containing 5% FBS). Cells were subjected to Fc blocking using mouse Fc block from Biolegend (Trustain, anti-mouse CD16/32, Cat: 101319) to block non-specific binding followed by surface staining for immune markers (CD45, CD3, CD11b, Ly6C, human CCR2). Surface staining was done for 30 minutes in ice and cells were washed twice to remove unbound antibodies. Cells were stained with 7AAD to determine viability and acquired on BD FACSVerse flow cytometer. Appropriate FMO controls and single-color controls were included in the experiment for gating and compensation respectively.
Percent depletion of CD11b+Ly6c+ Hi cells and CCR2 expression for the different treatment groups was determined. The results are shown below in Table 4 and are reported as percent (%) depletion of CCR2 expressing cells.

[2] = Blood drug concentration analysis (LC-MS/MS) in In Vivo Depletion Assay; settings: human CCR2 (hCCR2) knock-in, 057 background, mouse, whole blood, hCCR2 knock-in mice, IV 0.1 mpk compound + 10 mpk anti-cotinine antibody, 48 hours post-dose, read-out: Exposure of Compound of Formula (I) 48 hours post-dose
Protocol: as §1, §2
Collection of Blood for PK: Blood was collected at time points 0.25 hour, 2 hours, and […] following administration (50 μL/time point) through retro-orbital bleeding under mild isoflurane anesthesia.
as §3
Drug concentration in blood samples was determined by an LC-MS/MS-based bioanalytical method developed at Syngene. Samples were analyzed on Q-Trap, API-5500 LC-MS/MS system coupled with Exion UHPLC system from SCIEX, USA operated in multiple reaction monitoring mode employing electrospray ionization technique in positive polarity. Analyte and internal standard peaks were resolved on Synergi Polar, 75×2.0 mm, 4μ column using mobile phase 10 mM Ammonium acetate in Milli-Q water as phase A and 0.1% Formic acid in acetonitrile as Phase B. Gradient elution was performed with initial composition 95% Phase A at 0.0 min, holding it for 0.2 minutes, ramping to 5% by 1.0 minute, keeping the same for next 0.5 minutes and coming back to 95% by 1.6 minutes. The total run time was 2 minutes.
Working dilutions for calibration curve and quality control standards were prepared by serially diluting 20 mg/mL stock solution with DMSO. Spiked concentrations for calibration curve in the whole blood ranged from 1 ng/mL to 1000 ng/mL. The working solution of internal standard (Verapamil, 25 ng/mL) was prepared in acetonitrile. 10 μL of the study sample and calibration curve, quality control, and blank whole blood samples were aliquoted in 96 deep well plates for processing. 10 μL of Milli-Q water was added to all the samples and briefly vortexed to initiate complete hemolysis. 10 μL of 20 mM dithiothreitol (OTT) was added to all the samples and incubated for 30 minutes at 37° C. The addition of DTT enhanced the recovery of ARM compounds of Formula (I) from the biological matrix. 300 μL of working internal standard solution was added to all samples except total blank and wash samples, where 300 μL of acetonitrile was added. All the samples were vortex mixed for 5 minutes, followed by centrifugation at 4000 rpm for 10 minutes at 4° C. Supernatants were transferred to the loading plate and injected 3 μL to LC-MS/MS system for analysis. The results are shown below in Table 4 and are reported as compound exposure 48 hours post-dose

Row | SMILES | % Depletion of CCR2 expressing cells [1] | concentration at 48 h [2]
1 | CO[C@@H]1COCC[C@@H]1N[C@@H]1CC[C@](CCCNC(=O)[C@H]2CC[C@H](NC(=O)CCCO[C@H]3CC[C@H](OCCNC(=O)[C@H]4CC(=O)N(C)[C@@H]4c4cccnc4)CC3)CC2)(C(=O)N2CCc3ncc(C(F)(F)F)cc3C2)C1 [Example 3, (2S,3S)-N-(2-(((1R,4S)-4-(4-(((1S,4R)-4-((3-((1S,3R)-3-(((3S,4S)-3-Methoxytetrahydro-2H-pyran-4-yl)amino)-1-(3-(trifluoromethyl)-5,6,7,8-tetrahydro-1,6-naphthyridine-6-carbonyl)cyclopentyl)propyl)carbamoyl)cyclohexyl)amino)-4-oxobutoxy)cyclohexyl)oxy)ethyl)-1-methyl-5-oxo-2-(pyridin-3-yl)pyrrolidine-3-carboxamide] | 98.4% | 0.0313 µg/mL
2 | CO[C@@H]1COCC[C@@H]1N[C@@H]1CC[C@](CCC2CCN(C(=O)[C@H]3CC[C@H](NC(=O)CCCO[C@H]4CC[C@H](OCCNC(=O)[C@H]5CC(=O)N(C)[C@@H]5c5cccnc5)CC4)CC3)CC2)(C(=O)N2CCc3ncc(C(F)(F)F)cc3C2)C1 [Example 2, (2S,3S)—N-(2-(((1R,4S)-4-(4-(((1S,4R)-4-(4-(2-((1S,3R)-3-(((3S,4S)-3-Methoxytetrahydro-2H-pyran-4-yl)amino)-1-(3-(trifluoromethyl)-5,6,7,8-tetrahydro-1,6-naphthyridine-6-carbonyl)cyclopentyl)ethyl)piperidine-1-carbonyl)cyclohexyl)amino)-4-oxobutoxy)cyclohexyl)oxy)ethyl)-1-methyl-5-oxo-2-(pyridin-3-yl)pyrrolidine-3-carboxamide] | 97.7% | 0.0532 µg/mL
3 | CO[C@@H]1COCC[C@@H]1N[C@@H]1CC[C@](CCCNC(=O)[C@H]2CC[C@@H](NC(=O)CCOCCOCCOCCNC(=O)[C@H]3CC(=O)N(C)[C@@H]3c3cccnc3)CC2)(C(=O)N2CCc3ncc(C(F)(F)F)cc3C2)C1 [Example 17, (2S,3S)—N-(2-(2-(2-(3-(((1R,4s)-4-((3-((1S,3R)-3-(((3S,4S)-3-Methoxytetrahydro-2H-pyran-4-yl)amino)-1-(3-(trifluoromethyl)-5,6,7,8-tetrahydro-1,6-naphthyridine-6-carbonyl)cyclopentyl)propyl)carbamoyl)cyclohexyl)amino)-3-oxopropoxy)ethoxy)ethoxy)ethyl)-1-methyl-5-oxo-2-(pyridin-3-yl)pyrrolidine-3-carboxamide, Formic acid salt] | 96.07% | 0.0283 µg/mL
4 | CO[C@@H]1COCC[C@@H]1N[C@@H]1CC[C@](CCCNC(=O)CCOCCOCCOCCOCCOCCOCCOCCOCCOCCOCCOCCOCCNC(=O)[C@H]2CC(=O)N(C)[C@@H]2c2cccnc2)(C(=O)N2CCc3ncc(C(F)(F)F)cc3C2)C1 [Example 1, (2S,3S)—N-(43-((1S,3R)-3-(((3S,4S)-3-methoxytetrahydro-2H-pyran-4-yl)amino)-1-(3-(trifluoromethyl)-5,6,7,8-tetrahydro-1,6-naphthyridine-6-carbonyl)cyclopentyl)-39-oxo-3,6,9,12,15,18,21,24,27,30,33,36-dodecaoxa-40-azatritetracontyl)-1-methyl-5-oxo-2-(pyridin-3-yl)pyrrolidine-3-carboxamide] | 91.67% | 0.0557 µg/mL
5 | CO[C@@H]1COCC[C@@H]1N[C@@H]1CC[C@](COCCNC(=O)[C@H]2CC[C@H](NC(=O)CCCO[C@H]3CC[C@H](OCCNC(=O)[C@H]4CC(=O)N(C)[C@@H]4c4cccnc4)CC3)CC2)(C(=O)N2CCc3ncc(C(F)(F)F)cc3C2)C1 [Example 11, (2S,3S)-N-(2-(((1R,4S)-4-(4-(((1S,4R)-4-((2-(((1S,3R)-3-(((3S,4S)-3-Methoxytetrahydro-2H-pyran-4-yl)amino)-1-(3-(trifluoromethyl)-5,6,7,8-tetrahydro-1,6-naphthyridine-6-carbonyl)cyclopentyl)methoxy)ethyl)carbamoyl)cyclohexyl)amino)-4-oxobutoxy)cyclohexyl)oxy)ethyl)-1-methyl-5-oxo-2-(pyridin-3-yl)pyrrolidine-3-carboxamide] | 89.3% | 0.0851 µg/mL
6 | CO[C@@H]1COCC[C@@H]1N[C@@H]1CC[C@](CCCNC(=O)[C@H]2CC[C@@H](NC(=O)CCCO[C@H]3CC[C@@H](OCCNC(=O)[C@H]4CC(=O)N(C)[C@@H]4c4cccnc4)CC3)CC2)(C(=O)N2CCc3ncc(C(F)(F)F)cc3C2)C1 [Example 4, (2S,3S)-N-(2-(((1S,4R)-4-(4-(((1R,4S)-4-((3-((1S,3R)-3-(((3S,4S)-3-Methoxytetrahydro-2H-pyran-4-yl)amino)-1-(3-(trifluoromethyl)-5,6,7,8-tetrahydro-1,6-naphthyridine-6-carbonyl)cyclopentyl)propyl)carbamoyl)cyclohexyl)amino)-4-oxobutoxy)cyclohexyl)oxy)ethyl)-1-methyl-5-oxo-2-(pyridin-3-yl)pyrrolidine-3-carboxamide, Formic acid salt] | 99.69% | 0.0266 µg/mL
7 | CO[C@@H]1COCC[C@@H]1N[C@@H]1CC[C@@](C(=O)N2CCc3nc(CCCCOc4cccc(C(=O)NCCOCCOCCOCCOCCOCCOCCOCCOCCOCCNC(=O)[C@H]5CC(=O)N(C)[C@@H]5c5cccnc5)c4)c(C(F)(F)F)cc3C2)(C(C)C)C1 [Example 22, (2S,3S)—N-(1-(3-(4-(6-((1S,3R)-1-Isopropyl-3-(((3S,4S)-3-methoxytetrahydro-2H-pyran-4-yl)amino)cyclopentane-1-carbonyl)-3-(trifluoromethyl)-5,6,7,8-tetrahydro-1,6-naphthyridin-2-yl)butoxy)phenyl)-1-oxo-5,8,11,14,17,20,23,26,29-nonaoxa-2-azahentriacontan-31-yl)-1-methyl-5-oxo-2-(pyridin-3-yl)pyrrolidine-3-carboxamide] | 89% | 0.0155 µg/mL
